Data: US10654832B2, “3-(benzoimidazol-2-YL)-indazole inhibitors of the Wnt signaling pathway and therapeutic uses thereof” (Samumed, LLC, priority 2013, dated 2020)

System: Wnt activity (wnt-responsive SP5 promoter luciferase reporter in SW480 cells)
Assay: Wnt activity reporter assay (SP5 promoter-firefly luciferase in SW480 cells)
Assay type: cell-based
Details: Homo sapiens; SW480 colon cancer cells with SP5 promoter luciferase reporter; 24 h after compound addition; half-log dilutions, three micromolar top concentration; normalized to DMSO; read-out: Wnt inhibition
From the text: The above synthesized compounds were screened using the assay procedure for Wnt activity described below.
Reporter cell lines were generated by stably transducing cells of cancer cell lines (e.g., colon cancer) with a lentiviral construct that include a wnt-responsive promoter driving expression of the firefly luciferase gene.
Lentiviral constructs were made in which the SP5 promoter, a promoter having eight TCF/LEF binding sites derived from the SP5 promoter, was linked upstream of the firefly luciferase gene. The lentiviral constructs included a hygromycin resistance gene as a selectable marker. The SP5 promoter construct was used to transduce SW480 cells, a colon cancer cell line having a mutated APC gene that generates a truncated APC protein, leading to de-regulated accumulation of β-catenin.
Cultured SW480 cells bearing a reporter construct were distributed at approximately 10,000 cells per well into 384 well multiwell plates. Compounds were then added to the wells in half-log dilutions using a three micromolar top concentration. A series of control wells for each cell type received only buffer and compound solvent. Twenty-four hours after the addition of compound, reporter activity for luciferases was assayed, for example, by addition of the BrightGlo luminescence reagent (Promega) and the Victor3 plate reader (Perkin Elmer). Readings were normalized to DMSO only treated cells, and normalized activities were then used for the IC50 calculations.

## Fc1ccc(-c2cccc3[nH]c(-c4n[nH]c5ccc(-c6cncc(CNCc7ccccc7)c6)cc45)nc23)cc1 [Compound 47, N-benzyl-1-(5-(3-(4-(4-Fluorophenyl)-1H-benzo[d]imidazol-2-yl)-1H-indazol-5-yl)pyridin-3-yl)methanamine]
  IC50: 450 nM

## CCNCc1cncc(-c2ccc3[nH]nc(-c4nc5c(-c6ccccc6F)cccc5[nH]4)c3c2)c1 [Compound 54, N-((5-(3-(4-(2-Fluorophenyl)-1H-benzo[d]imidazol-2-yl)-1H-indazol-5-yl)pyridin-3-yl)methyl)ethanamine]
  IC50: 46 nM

## O=C(Nc1cncc(-c2ccc3[nH]nc(-c4nc5c(-c6ccccc6F)cccc5[nH]4)c3c2)c1)c1ccccc1 [Compound 59, N-(5-(3-(4-(2-Fluorophenyl)-1H-benzo[d]imidazol-2-yl)-1H-indazol-5-yl)pyridin-3-yl)benzamide]
  IC50: 332 nM

## Fc1ccccc1-c1cccc2[nH]c(-c3n[nH]c4ccc(-c5cncc(CN6CCCCC6)c5)cc34)nc12 [Compound 63, 3-(4-(2-Fluorophenyl)-1H-benzo[d]imidazol-2-yl)-5-(5-(piperidin-1-ylmethyl)pyridin-3-yl)-1H-indazole]
  IC50: 10 nM

## CCCCC(=O)Nc1cncc(-c2ccc3[nH]nc(-c4nc5c(-c6ccccc6F)cccc5[nH]4)c3c2)c1 [Compound 66, N-(5-(3-(4-(2-Fluorophenyl)-1H-benzo[d]imidazol-2-yl)-1H-indazol-5-yl)pyridin-3-yl)pentanamide]
  IC50: ≥ 4000 nM

## O=C(Nc1cncc(-c2ccc3[nH]nc(-c4nc5c(-c6ccccc6F)cccc5[nH]4)c3c2)c1)C1CCCC1 [Compound 69, N-(5-(3-(4-(2-Fluorophenyl)-1H-benzo[d]imidazol-2-yl)-1H-indazol-5-yl)pyridin-3-yl)cyclopentanecarboxamide]
  IC50: 23 nM

## Fc1ccccc1-c1cccc2[nH]c(-c3n[nH]c4ccc(-c5cncc(CNCC6CCCC6)c5)cc34)nc12 [Compound 72, 1-Cyclopentyl-N-((5-(3-(4-(2-fluorophenyl)-1H-benzo[d]imidazol-2-yl)-1H-indazol-5-yl)pyridin-3-yl)methyl)methanamine]
  IC50: 1140 nM

## Nc1cncc(-c2ccc3[nH]nc(-c4nc5c(-c6cccnc6)cccc5[nH]4)c3c2)c1 [Compound 75, 5-(3-(4-(Pyridin-3-yl)-1H-benzo[d]imidazol-2-yl)-1H-indazol-5-yl)pyridin-3-amine]
  IC50: 6 nM

## Cc1ccncc1-c1ccc2[nH]nc(-c3nc4c(-c5cccnc5)cccc4[nH]3)c2c1 [Compound 77, 5-(4-Methylpyridin-3-yl)-3-(4-(pyridin-3-yl)-1H-benzo[d]imidazol-2-yl)-1H-indazole]
  IC50: 63 nM

## CN(C)c1cncc(-c2ccc3[nH]nc(-c4nc5c(-c6cccnc6)cccc5[nH]4)c3c2)c1 [Compound 79, N,N-Dimethyl-5-(3-(4-(pyridin-3-yl)-1H-benzo[d]imidazol-2-yl)-1H-indazol-5-yl)pyridin-3-amine]
  IC50: 45 nM

## CC(C)Nc1cncc(-c2ccc3[nH]nc(-c4nc5c(-c6cccnc6)cccc5[nH]4)c3c2)c1 [Compound 84, N-Isopropyl-5-(3-(4-(pyridin-3-yl)-1H-benzo[d]imidazol-2-yl)-1H-indazol-5-yl)pyridin-3-amine]
  IC50: 13 nM

## CC(C)(C)CC(=O)Nc1cncc(-c2ccc3[nH]nc(-c4nc5c(-c6cccnc6)cccc5[nH]4)c3c2)c1 [Compound 88, 3,3-Dimethyl-N-(5-(3-(4-(pyridin-3-yl)-1H-benzo[d]imidazol-2-yl)-1H-indazol-5-yl)pyridin-3-yl)butanamide]
  IC50: 135 nM

## CCCC(=O)Nc1cncc(-c2ccc3[nH]nc(-c4nc5c(-c6cccnc6)cccc5[nH]4)c3c2)c1 [Compound 89, N-(5-(3-(4-(Pyridin-3-yl)-1H-benzo[d]imidazol-2-yl)-1H-indazol-5-yl)pyridin-3-yl)butyramide]
  IC50: 4 nM

## CCCCC(=O)Nc1cncc(-c2ccc3[nH]nc(-c4nc5c(-c6cccnc6)cccc5[nH]4)c3c2)c1 [Compound 90, N-(5-(3-(4-(Pyridin-3-yl)-1H-benzo[d]imidazol-2-yl)-1H-indazol-5-yl)pyridin-3-yl)pentanamide]
  IC50: 11 nM

## O=C(Nc1cncc(-c2ccc3[nH]nc(-c4nc5c(-c6cccnc6)cccc5[nH]4)c3c2)c1)C1CCC1 [Compound 92, N-(5-(3-(4-(Pyridin-3-yl)-1H-benzo[d]imidazol-2-yl)-1H-indazol-5-yl)pyridin-3-yl)cyclobutanecarboxamide]
  IC50: 8 nM

## O=C(Nc1cncc(-c2ccc3[nH]nc(-c4nc5c(-c6cccnc6)cccc5[nH]4)c3c2)c1)C1CCCCC1 [Compound 94, N-(5-(3-(4-(Pyridin-3-yl)-1H-benzo[d]imidazol-2-yl)-1H-indazol-5-yl)pyridin-3-yl)cyclohexanecarboxamide]
  IC50: 121 nM

## c1ccc(CNCc2cncc(-c3ccc4[nH]nc(-c5nc6c(-c7cccnc7)cccc6[nH]5)c4c3)c2)cc1 [Compound 95, N-Benzyl-1-(5-(3-(4-(pyridin-3-yl)-1H-benzo[d]imidazol-2-yl)-1H-indazol-5-yl)pyridin-3-yl)methanamine]
  IC50: 163 nM

## CC(C)(C)C(=O)Nc1cncc(-c2ccc3[nH]nc(-c4nc5c(-c6ccncc6)cccc5[nH]4)c3c2)c1 [Compound 104, N-(5-(3-(4-(Pyridin-4-yl)-1H-benzo[d]imidazol-2-yl)-1H-indazol-5-yl)pyridin-3-yl)pivalamide]
  IC50: 65 nM

## O=C(Cc1ccccc1)Nc1cncc(-c2ccc3[nH]nc(-c4nc5c(-c6ccncc6)cccc5[nH]4)c3c2)c1 [Compound 106, 2-Phenyl-N-(5-(3-(4-(pyridin-4-yl)-1H-benzo[d]imidazol-2-yl)-1H-indazol-5-yl)pyridin-3-yl)acetamide]
  IC50: 1930 nM

## CC(C)Nc1cncc(-c2ccc3[nH]nc(-c4nc5c(-c6ccncc6)cccc5[nH]4)c3c2)c1 [Compound 108, N-Isopropyl-5-(3-(4-(pyridin-4-yl)-1H-benzo[d]imidazol-2-yl)-1H-indazol-5-yl)pyridin-3-amine]
  IC50: 16 nM

## c1cc(-c2ccncc2)c2nc(-c3n[nH]c4ccc(-c5cncc(CN6CCCC6)c5)cc34)[nH]c2c1 [Compound 110, 3-(4-(Pyridin-4-yl)-1H-benzo[d]imidazol-2-yl)-5-(5-(pyrrolidin-1-ylmethyl)pyridin-3-yl)-1H-indazole]
  IC50: 205 nM

## CCCCC(=O)Nc1cncc(-c2ccc3[nH]nc(-c4nc5c(-c6ccncc6)cccc5[nH]4)c3c2)c1 [Compound 114, N-(5-(3-(4-(Pyridin-4-yl)-1H-benzo[d]imidazol-2-yl)-1H-indazol-5-yl)pyridin-3-yl)pentanamide]
  IC50: 67 nM

## O=C(Nc1cncc(-c2ccc3[nH]nc(-c4nc5c(-c6ccncc6)cccc5[nH]4)c3c2)c1)C1CCC1 [Compound 116, N-(5-(3-(4-(Pyridin-4-yl)-1H-benzo[d]imidazol-2-yl)-1H-indazol-5-yl)pyridin-3-yl)cyclobutanecarboxamide]
  IC50: 23 nM

## O=C(Nc1cncc(-c2ccc3[nH]nc(-c4nc5c(-c6ccncc6)cccc5[nH]4)c3c2)c1)C1CCCC1 [Compound 117, N-(5-(3-(4-(Pyridin-4-yl)-1H-benzo[d]imidazol-2-yl)-1H-indazol-5-yl)pyridin-3-yl)cyclopentanecarboxamide]
  IC50: 54 nM

## O=C(Nc1cncc(-c2ccc3[nH]nc(-c4nc5c(-c6ccncc6)cccc5[nH]4)c3c2)c1)C1CCCCC1 [Compound 118, N-(5-(3-(4-(Pyridin-4-yl)-1H-benzo[d]imidazol-2-yl)-1H-indazol-5-yl)pyridin-3-yl)cyclohexanecarboxamide]
  IC50: 1460 nM

## CC(C)CC(=O)Nc1cncc(-c2ccc3[nH]nc(-c4nc5c(-c6ccccn6)cccc5[nH]4)c3c2)c1 [Compound 122, 3-Methyl-N-(5-(3-(4-(pyridin-2-yl)-1H-benzo[d]imidazol-2-yl)-1H-indazol-5-yl)pyridin-3-yl)butanamide]
  IC50: 11 nM

## Cc1ccncc1-c1ccc2[nH]nc(-c3nc4c(-c5ccccn5)cccc4[nH]3)c2c1 [Compound 125, 5-(4-Methylpyridin-3-yl)-3-(4-(pyridin-2-yl)-1H-benzo[d]imidazol-2-yl)-1H-indazole]
  IC50: 54 nM

## CN(C)c1cncc(-c2ccc3[nH]nc(-c4nc5c(-c6ccccn6)cccc5[nH]4)c3c2)c1 [Compound 127, N,N-Dimethyl-5-(3-(4-(pyridin-2-yl)-1H-benzo[d]imidazol-2-yl)-1H-indazol-5-yl)pyridin-3-amine]
  IC50: 32 nM

## CC(C)C(=O)Nc1cncc(-c2ccc3[nH]nc(-c4nc5c(-c6ccccn6)cccc5[nH]4)c3c2)c1 [Compound 129, N-(5-(3-(4-(Pyridin-2-yl)-1H-benzo[d]imidazol-2-yl)-1H-indazol-5-yl)pyridin-3-yl)isobutyramide]
  IC50: 21 nM

## CN(C)Cc1cncc(-c2ccc3[nH]nc(-c4nc5c(-c6ccccn6)cccc5[nH]4)c3c2)c1 [Compound 133, N,N-Dimethyl-1-(5-(3-(4-(pyridin-2-yl)-1H-benzo[d]imidazol-2-yl)-1H-indazol-5-yl)pyridin-3-yl)methanamine]
  IC50: 127 nM

## c1ccc(-c2cccc3[nH]c(-c4n[nH]c5ccc(-c6cncc(CN7CCCC7)c6)cc45)nc23)nc1 [Compound 134, 3-(4-(Pyridin-2-yl)-1H-benzo[d]imidazol-2-yl)-5-(5-(pyrrolidin-1-ylmethyl)pyridin-3-yl)-1H-indazole]
  IC50: 219 nM
